# Source: US7915255B2, “Metabolism-modulating agents and uses therefor” (Verva Pharmaceuticals Pty Ltd, priority 2004, dated 2011)
# Entries after “also recorded” stand apart in the source; their conditions may differ.
# Columns and labels:
# IMPDH = assay: Insulin-stimulated 32P phosphorylation of IMPDH; assay type: cell-based
# Method: (§1) 3T3-L1 cells, CHO.IR cells (46) and fibroblast cells derived from vimentin null (Vim^−/−) mice were cultured as described (28, 47). Human preadipocytes were cultured and differentiated as described (47). Transfections were performed using Lipofectamine. Cells were serum starved for at least 2 h before treatment with insulin (1 μM, 15 min) or pre-treatment with wortmannin (100 nM, 25 min), LY294002 (50 μM, 10 min) or C2-ceramide (100 μM, 2 h) followed by insulin or oleate. To induce lipid body accumulation cells were cultured in regular growth medium supplemented with 200 μM oleate complexed to fatty acid free bovine serum albumin (BSA) in a 6:1 molar ratio. Mycophenolic acid (MPA) was dissolved in methanol to give a stock solution of 30 mM. This was further diluted in methanol, prior to direct addition to the culture media such that the final concentration of methanol was always 0.1%. Guanosine was dissolved in DMSO to give a stock solution of 100 mM. This was further diluted in DMSO, prior to direct addition to the culture media such that the final concentration of DMSO was always 0.33%. Media was refreshed, with addition of fresh MPA, guanosine, or vehicle, every 3 days as appropriate. […] Samples were subjected to SDS-PAGE and analysed by immunoblotting and autoradiography. […]
# Akt = Akt phosphorylation (immunoblotting); assay type: cell-based; conditions: C2-ceramide; data not shown
# Method: (§2) 3T3-L1 cells, CHO.IR cells (46) and fibroblast cells derived from vimentin null (Vim^−/−) mice were cultured as described (28, 47). Human preadipocytes were cultured and differentiated as described (47). Transfections were performed using Lipofectamine. Cells were serum starved for at least 2 h before treatment with insulin (1 μM, 15 min) or pre-treatment with wortmannin (100 nM, 25 min), LY294002 (50 μM, 10 min) or C2-ceramide (100 μM, 2 h) followed by insulin or oleate. To induce lipid body accumulation cells were cultured in regular growth medium supplemented with 200 μM oleate complexed to fatty acid free bovine serum albumin (BSA) in a 6:1 molar ratio. Mycophenolic acid (MPA) was dissolved in methanol to give a stock solution of 30 mM. This was further diluted in methanol, prior to direct addition to the culture media such that the final concentration of methanol was always 0.1%. Guanosine was dissolved in DMSO to give a stock solution of 100 mM. […]
# For western blotting, following appropriate treatment, cells were harvested in lysis buffer (50 mM HEPES (pH 7.4), 150 mM NaCl, 1% Triton-X-100, 1 mM Na3VO4, 30 mM NaF, 10 mM Na4P2O7, 10 mM EDTA, 1 μg/ml aprotinin, 1 μg/ml leupeptin, 2 mM PMSF) and clarified by centrifugation (2,000×g for 10 min). Protein concentration was determined using the BCA assay. […]
# CHO.IR cells = assay: Oleate-induced lipid accumulation, Oil red-O staining; assay type: cell-based, Chinese hamster; conditions: LY294002 + 200 μM oleate, 5 h
# Method: as §1, with “(Vim^-/-)” for “(Vim^−/−)”, “Quantification of lipids was determined by measuring Oil red-O staining at […]. Protein concentration was determined in parallel and values” for “Samples”, “normalised” for “subjected”, “protein.” for “SDS-PAGE and analysed by immunoblotting and autoradiography.”
# 3T3-L1 cells = assay: Western blotting of adipogenic transcription factors and IMPDH in differentiating 3T3-L1 cells; assay type: cell-based, murine
# Method: (§3) 3T3-L1 cells, CHO.IR cells (46) and fibroblast cells derived from vimentin null (Vim^−/−) mice were cultured as described (28, 47). Human preadipocytes were cultured and differentiated as described (47). Transfections were performed using Lipofectamine. Cells were serum starved for at least 2 h before treatment with insulin (1 μM, 15 min) or pre-treatment with wortmannin (100 nM, 25 min), LY294002 (50 μM, 10 min) or C2-ceramide (100 μM, 2 h) followed by insulin or oleate. To induce lipid body accumulation cells were cultured in regular growth medium supplemented with 200 μM oleate complexed to fatty acid free bovine serum albumin (BSA) in a 6:1 molar ratio. Mycophenolic acid (MPA) was dissolved in methanol to give a stock solution of 30 mM. This was further diluted in methanol, prior to direct addition to the culture media such that the final concentration of methanol was always 0.1%. Guanosine was dissolved in DMSO to give a stock solution of 100 mM. This was further diluted in DMSO, prior to direct addition to the culture media such that the final concentration of DMSO was always 0.33%. Media was refreshed, with addition of fresh MPA, guanosine, or vehicle, every 3 days as appropriate.
# For western blotting, following appropriate treatment, cells were harvested in lysis buffer (50 mM HEPES (pH 7.4), 150 mM NaCl, 1% Triton-X-100, 1 mM Na3VO4, 30 mM NaF, 10 mM Na4P2O7, 10 mM EDTA, 1 μg/ml aprotinin, 1 μg/ml leupeptin, 2 mM PMSF) and clarified by centrifugation (2,000×g for 10 min). Protein concentration was determined using the BCA assay. Equal protein was subjected to SDS-PAGE and immunoblotting and visualized by autoradiography (using enhanced chemiluminescence) or fluorescent analysis using the L1-Cor Odyssey system.
# 3T3-L1 preadipocytes [1] = assay: Clonal expansion / cell number of differentiating 3T3-L1 cells (Syto60); assay type: cell-based, murine
# Method: as §2
# Essentially Syto60 staining was used to determine cell number following the manufacturers protocol. […] Finally, wells were aspirated and Syto60 staining was detected and quantitated using the LI-COR Odyssey Infrared Imaging System. DAPI was detected by fluorescence microscopy and was used to validate the Syto60 data in preliminary experiments.
# 3T3-L1 preadipocytes [2] = assay: Adipogenesis of 3T3-L1 preadipocytes (lipid accumulation, G3PDH activity, protein); assay type: cell-based, murine
# Method: as §3, with “appropriate. Cells were washed in ice cold PBS (pH 7.4) and harvested in 1 ml of ice-cold 50 mM Tris (pH 7.5) containing 1 mM EDTA and 500 μM DTT. Cells were disrupted by sonication and centrifuged at 12000 g for 15 min at 4° C. Before assay, 5 μl of 100 mM DTT was added. The supernatant was then assayed for G3PDH activity in a final concentration of 100 mM triethanolamine-HCl (pH 7.5), 2.5 mM EDTA, 0.24 mM NADH, 50 μM DTT and 0.4 mM dihydroxyacetone phosphate (DAP). The reaction was initiated by addition of DAP and the rate of change in A340 was measured using a FLUOstar Optimem spectrophotometer (BMG labtech, Victoria Australia). Each of three culture wells was assayed in duplicate with a reagent blank containing distilled water instead of substrate (DAP). An aliquot of the supernatant was assayed to determine protein concentration.” for “appropriate.”
# [3] = test system: primary human preadipocytes; assay: Adipogenesis of primary human preadipocytes (lipid accumulation, G3PDH activity); assay type: cell-based
# Method: as §3, with “appropriate. Cells were washed in ice cold PBS (pH 7.4) and harvested in 1 ml of ice-cold 50 mM Tris (pH 7.5) containing 1 mM EDTA and 500 μM DTT. Cells were disrupted by sonication and centrifuged at 12000 g for 15 min at 4° C. Before assay, 5 μl of 100 mM DTT was added. The supernatant was then assayed for G3PDH activity in a final concentration of 100 mM triethanolamine-HCl (pH 7.5), 2.5 mM EDTA, 0.24 mM NADH, 50 μM DTT and 0.4 mM dihydroxyacetone phosphate (DAP). The reaction was initiated by addition of DAP and the rate of change in A340 was measured using a FLUOstar Optimem spectrophotometer (BMG labtech, Victoria Australia). Each of three culture wells was assayed in duplicate with a reagent blank containing distilled water instead of substrate (DAP). An aliquot of the supernatant was assayed to determine protein concentration.” for “appropriate.”
compound,measurement,setting,value
CCCCCCCCCCCCC/C=C/[C@@H](O)[C@H](CO)NC(C)=O [C2-ceramide],insulin-stimulated IMPDH phosphorylation,"IMPDH; C2-ceramide 100 μM, 2 h",without effect
same,reduction of insulin-stimulated Akt phosphorylation,Akt,70%
O=c1cc(N2CCOCC2)oc2c(-c3ccccc3)cccc12 [LY294002],reduction of oleate-induced lipid accumulation (Oil red-O),CHO.IR cells,approximately 50%
COc1ccc2c(c1)c(C1=C(c3c[nH]c4ccccc34)C(=O)NC1=O)cn2CCCN(C)C [Gö6983],role of the inhibited kinase (atypical PKCs; mTOR and p70S6 kinase) in insulin-stimulated IMPDH phosphorylation,"IMPDH; Gö6983 1 μM, rapamycin 22 nM, data not shown",eliminated
Nc1nc2c(ncn2[C@@H]2O[C@H](CO)[C@@H](O)[C@H]2O)c(=O)[nH]1 [guanosine],MPA-induced increase in IMPDH expression,3T3-L1 cells; co-treatment with guanosine,Reversal of MPA induced increase in IMPDH expression; also recorded: prevented by co-treatment with guanosine
same,MPA inhibition of clonal expansion/proliferation,3T3-L1 preadipocytes [1]; 60 μM guanosine co-treatment with MPA,Reversal of effects of MPA on clonal expansion; also recorded: reversed the inhibition of proliferation by MPA
same,lipid accumulation and G3PDH activity in MPA-treated cells,3T3-L1 preadipocytes [2]; 60 μM guanosine + 1 μM MPA,reversed the effects of MPA treatment; also recorded: restored lipid accumulation
same,effects of MPA treatment on lipid accumulation and G3PDH activity,3T3-L1 preadipocytes [2]; 300 μM guanosine + 1 μM MPA,still able to reverse the effects of MPA treatment to some extent
same,lipid accumulation and adipogenesis,3T3-L1 preadipocytes [2]; 300 μM guanosine alone,reduced adipogenesis; also recorded: inhibited lipid accumulation and adipogenesis
same,induction of G3PDH activity / differentiation,[3]; 60 μM guanosine,reduced induction of G3PDH activity; also recorded: inhibited differentiation
"COc1c(C)c2c(c(O)c1C/C=C(\C)CCC(=O)O)C(=O)OC2 [MPA, mycophenolic acid]",IMPDH expression,3T3-L1 cells; 1 μM MPA,promotes increased IMPDH expression; also recorded: promoted an increase in IMPDH expression
same,"expression of adipogenic transcription factors CEBPα, CEBPβ, PPARγ","3T3-L1 cells; 1 μM MPA, harvested at day 3","blocks expression of CEBPα, but not CEBPβ or PPARγ; also recorded: induction of expression of the adipogenic transcription factors CEBPβ and PPARγ, but not CEBPα, was apparent"
same,proliferation/clonal expansion,"3T3-L1 preadipocytes [1]; 1 μM MPA, first 3 days of differentiation",blocks proliferation/clonal expansion; also recorded: blocked clonal expansion
same,lipid accumulation (determined morphologically),3T3-L1 preadipocytes [2]; 1 μM MPA,blocks lipid accumulation; also recorded: reduced lipid accumulation; also recorded: inhibited lipid accumulation
same,G3PDH activity,"3T3-L1 preadipocytes [2]; 1 μM MPA, day 8",decreased G3PDH activity
same,differentiation,3T3-L1 preadipocytes [2]; MPA for 6 days (0-6),block differentiation completely
same,lipid accumulation and G3PDH activity,3T3-L1 preadipocytes [2]; MPA for the first 3 days (0-3) or the second 3 days (3-6) of differentiation,reduced lipid accumulation and G3PDH activity
same,IC50,"3T3-L1 preadipocytes [2]; Mus musculus, 3T3-L1, increasing MPA for the first 6 days of differentiation, harvested day 8, read-out: IC50 for inhibition of differentiation (G3PDH activity and protein levels)",100 to 200 nM
same,induction of G3PDH activity,[3]; 1 μM MPA,reduced
same,lipid accumulation,[3]; 1 μM MPA,reduced lipid accumulation and expression of G3PDH activity
